Data from ChEMBL document CHEMBL4507320, “Data for DCP probe NVS-MALT1” (2021).

What was measured:
[1] = target: 1-phosphatidylinositol 3-phosphate 5-kinase (Homo sapiens) (UniProt Q9Y2I7); settings: Compound concentration 1000.0 nM
[2] = target: RAC-alpha serine/threonine-protein kinase (Homo sapiens) (UniProt P31749); settings: Compound concentration 1000.0 nM
[3] = target: Homeodomain-interacting protein kinase 4 (Homo sapiens) (UniProt Q8NE63); settings: Compound concentration 1000.0 nM
[4] = target: Serine/threonine-protein kinase LATS2 (Homo sapiens) (UniProt Q9NRM7); settings: Compound concentration 1000.0 nM
[5] = target: Serine/threonine-protein kinase pim-1 (Homo sapiens) (UniProt P11309); settings: Compound concentration 1000.0 nM
[6] = target: LIM domain kinase 2 (Homo sapiens) (UniProt P53671); settings: Compound concentration 1000.0 nM
[7] = system: Receptor-type tyrosine-protein kinase FLT3 (Homo sapiens), P36888 [N841I]; settings: Compound concentration 1000.0 nM
[8] = target: Ribosomal protein S6 kinase alpha-3 (Homo sapiens) (UniProt P51812); settings: Compound concentration 1000.0 nM
[9] = target: Mitogen-activated protein kinase kinase kinase 20 (Homo sapiens) (UniProt Q9NYL2); settings: Compound concentration 1000.0 nM
[10] = target: Tyrosine-protein kinase BTK (Homo sapiens) (UniProt Q06187); settings: Compound concentration 1000.0 nM
[11] = target: Tyrosine-protein kinase HCK (Homo sapiens) (UniProt P08631); settings: Compound concentration 1000.0 nM
[12] = target: Ribosomal protein S6 kinase alpha-5 (Homo sapiens) (UniProt O75582); settings: Compound concentration 1000.0 nM
[13] = system: Mast/stem cell growth factor receptor Kit (Homo sapiens), P10721 [D816H]; settings: Compound concentration 1000.0 nM
Mast/stem cell growth factor receptor Kit (Homo sapiens), P10721 [D816H], sequence (P10721 whole entry D816H): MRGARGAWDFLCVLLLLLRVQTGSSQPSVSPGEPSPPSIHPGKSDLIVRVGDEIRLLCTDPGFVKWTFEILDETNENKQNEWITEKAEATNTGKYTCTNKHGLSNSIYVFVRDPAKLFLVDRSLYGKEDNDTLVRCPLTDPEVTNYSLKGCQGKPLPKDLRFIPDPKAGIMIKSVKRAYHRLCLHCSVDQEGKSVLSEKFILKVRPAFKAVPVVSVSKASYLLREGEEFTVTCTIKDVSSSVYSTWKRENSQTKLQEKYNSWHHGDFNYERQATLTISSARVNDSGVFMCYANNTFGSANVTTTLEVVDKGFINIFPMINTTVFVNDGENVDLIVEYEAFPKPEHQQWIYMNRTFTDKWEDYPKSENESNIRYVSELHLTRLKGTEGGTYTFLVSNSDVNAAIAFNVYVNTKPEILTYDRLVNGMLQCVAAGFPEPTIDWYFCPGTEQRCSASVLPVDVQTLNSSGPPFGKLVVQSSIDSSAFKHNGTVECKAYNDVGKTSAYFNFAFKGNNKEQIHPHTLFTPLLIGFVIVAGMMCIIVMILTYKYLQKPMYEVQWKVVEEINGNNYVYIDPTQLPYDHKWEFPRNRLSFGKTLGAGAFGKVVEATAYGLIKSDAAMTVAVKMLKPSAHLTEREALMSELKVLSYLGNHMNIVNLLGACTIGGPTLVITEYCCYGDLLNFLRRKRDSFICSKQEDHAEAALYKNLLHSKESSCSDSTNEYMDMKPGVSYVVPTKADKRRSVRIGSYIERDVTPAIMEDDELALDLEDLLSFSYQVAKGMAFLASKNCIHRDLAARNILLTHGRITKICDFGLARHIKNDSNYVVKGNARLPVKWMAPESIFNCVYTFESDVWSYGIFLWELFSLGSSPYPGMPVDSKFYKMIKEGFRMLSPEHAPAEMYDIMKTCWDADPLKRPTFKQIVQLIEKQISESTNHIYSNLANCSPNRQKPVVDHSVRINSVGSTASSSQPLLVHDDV

[14] = system: Receptor-type tyrosine-protein kinase FLT3 (Homo sapiens), P36888 [K663Q]; settings: Compound concentration 1000.0 nM
[15] = system: Tyrosine-protein kinase ABL1 (Homo sapiens), P00519 [F317I]; settings: Compound concentration 1000.0 nM
[16] = target: Leucine-rich repeat serine/threonine-protein kinase 2 (Homo sapiens) (UniProt Q5S007); settings: Compound concentration 1000.0 nM
[17] = target: Phosphatidylinositol 4-phosphate 5-kinase type-1 alpha (Homo sapiens) (UniProt Q99755); settings: Compound concentration 1000.0 nM
Phosphatidylinositol 4-phosphate 5-kinase type-1 alpha (Homo sapiens), sequence (Q99755 whole entry, canonical isoform): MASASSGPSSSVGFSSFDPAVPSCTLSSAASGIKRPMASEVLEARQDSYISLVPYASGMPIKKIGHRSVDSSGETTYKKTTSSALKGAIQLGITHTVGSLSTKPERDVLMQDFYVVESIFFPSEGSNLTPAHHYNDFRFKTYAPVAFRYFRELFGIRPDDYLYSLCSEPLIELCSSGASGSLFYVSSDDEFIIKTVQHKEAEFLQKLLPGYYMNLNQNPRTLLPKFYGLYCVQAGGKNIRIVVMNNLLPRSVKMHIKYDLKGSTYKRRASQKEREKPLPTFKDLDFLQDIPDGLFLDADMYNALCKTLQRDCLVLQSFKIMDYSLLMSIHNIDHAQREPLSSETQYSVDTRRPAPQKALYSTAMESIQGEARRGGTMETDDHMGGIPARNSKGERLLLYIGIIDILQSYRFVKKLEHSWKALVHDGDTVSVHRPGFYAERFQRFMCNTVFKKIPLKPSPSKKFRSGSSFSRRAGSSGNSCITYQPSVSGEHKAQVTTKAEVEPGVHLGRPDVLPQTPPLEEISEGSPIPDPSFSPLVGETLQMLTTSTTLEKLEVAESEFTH

[18] = target: Phosphatidylinositol 4,5-bisphosphate 3-kinase catalytic subunit gamma isoform (Homo sapiens) (UniProt P48736); settings: Compound concentration 1000.0 nM
[19] = target: Serine/threonine-protein kinase 32C (Homo sapiens) (UniProt Q86UX6); settings: Compound concentration 1000.0 nM
[20] = target: Serine/threonine-protein kinase OSR1 (Homo sapiens) (UniProt O95747); settings: Compound concentration 1000.0 nM
[21] = target: Mitogen-activated protein kinase 12 (Homo sapiens) (UniProt P53778); settings: Compound concentration 1000.0 nM
[22] = target: Casein kinase I isoform delta (Homo sapiens) (UniProt P48730); settings: Compound concentration 1000.0 nM
Casein kinase I isoform delta (Homo sapiens), sequence (P48730 whole entry, looked up, canonical isoform): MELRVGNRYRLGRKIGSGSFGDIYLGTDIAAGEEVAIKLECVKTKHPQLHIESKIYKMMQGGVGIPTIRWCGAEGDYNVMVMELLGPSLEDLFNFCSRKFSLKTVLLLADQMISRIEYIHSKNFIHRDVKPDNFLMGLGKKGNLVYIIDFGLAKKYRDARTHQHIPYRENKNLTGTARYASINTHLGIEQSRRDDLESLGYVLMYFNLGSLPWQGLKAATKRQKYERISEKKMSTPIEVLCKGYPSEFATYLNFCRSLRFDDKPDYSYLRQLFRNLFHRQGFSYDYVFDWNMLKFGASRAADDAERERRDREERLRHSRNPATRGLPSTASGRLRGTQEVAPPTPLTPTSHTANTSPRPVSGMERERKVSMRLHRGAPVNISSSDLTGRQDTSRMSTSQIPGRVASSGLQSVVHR

[23] = target: Neutrophil collagenase (Homo sapiens) (UniProt P22894); test: MMP-8 (h) Protease assay; settings: Compound concentration 10.0 uM
[24] = target: Serine/threonine-protein kinase Nek7 (Homo sapiens) (UniProt Q8TDX7); settings: Compound concentration 1000.0 nM
[25] = target: Serine/threonine-protein kinase RIO1 (Homo sapiens) (UniProt Q9BRS2); settings: Compound concentration 1000.0 nM
[26] = target: Tyrosine-protein kinase FRK (Homo sapiens) (UniProt P42685); settings: Compound concentration 1000.0 nM
[27] = target: Histamine H2 receptor (Homo sapiens) (UniProt P25021); settings: Compound concentration 10.0 uM
[28] = target: Cathepsin D (Homo sapiens) (UniProt P07339); test: Cathepsin D (h) Protease assay; settings: Compound concentration 10.0 uM
[29] = target: Sigma intracellular receptor 2 (Homo sapiens, UniProt Q5BJF2); settings: Compound concentration 10.0 uM
Sigma intracellular receptor 2, sequence (Q5BJF2 whole entry): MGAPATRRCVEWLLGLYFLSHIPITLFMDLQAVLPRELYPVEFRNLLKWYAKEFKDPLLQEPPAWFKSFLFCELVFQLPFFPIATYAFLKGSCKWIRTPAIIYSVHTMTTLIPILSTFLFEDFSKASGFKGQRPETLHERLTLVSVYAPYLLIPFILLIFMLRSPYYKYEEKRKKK

[30] = target: 5-hydroxytryptamine receptor 1B (Homo sapiens) (UniProt P28222); settings: Compound concentration 10.0 uM
[31] = target: Proto-oncogene tyrosine-protein kinase receptor Ret (Homo sapiens) (UniProt P07949); settings: Compound concentration 1000.0 nM
[32] = target: Casein kinase II subunit alpha (Homo sapiens) (UniProt P68400); settings: Compound concentration 1000.0 nM
[33] = target: Mitogen-activated protein kinase kinase kinase 13 (Homo sapiens) (UniProt O43283); settings: Compound concentration 1000.0 nM
[34] = target: Sigma non-opioid intracellular receptor 1 (Homo sapiens, UniProt Q99720); test: GPCRScan assay: inhibition of Sigma 1; set-up: radioligand conc. used [nm] 4.0 – 5.0, parental cells HEKT
Sigma non-opioid intracellular receptor 1, sequence (Q99720 whole entry): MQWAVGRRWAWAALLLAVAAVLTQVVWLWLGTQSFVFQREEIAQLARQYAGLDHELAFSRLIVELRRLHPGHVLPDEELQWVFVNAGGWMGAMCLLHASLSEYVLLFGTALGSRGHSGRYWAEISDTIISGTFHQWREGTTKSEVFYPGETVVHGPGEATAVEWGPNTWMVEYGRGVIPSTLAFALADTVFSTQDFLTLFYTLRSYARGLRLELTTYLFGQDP

Homeodomain-interacting protein kinase 4 (Homo sapiens), sequence (Q8NE63 whole entry): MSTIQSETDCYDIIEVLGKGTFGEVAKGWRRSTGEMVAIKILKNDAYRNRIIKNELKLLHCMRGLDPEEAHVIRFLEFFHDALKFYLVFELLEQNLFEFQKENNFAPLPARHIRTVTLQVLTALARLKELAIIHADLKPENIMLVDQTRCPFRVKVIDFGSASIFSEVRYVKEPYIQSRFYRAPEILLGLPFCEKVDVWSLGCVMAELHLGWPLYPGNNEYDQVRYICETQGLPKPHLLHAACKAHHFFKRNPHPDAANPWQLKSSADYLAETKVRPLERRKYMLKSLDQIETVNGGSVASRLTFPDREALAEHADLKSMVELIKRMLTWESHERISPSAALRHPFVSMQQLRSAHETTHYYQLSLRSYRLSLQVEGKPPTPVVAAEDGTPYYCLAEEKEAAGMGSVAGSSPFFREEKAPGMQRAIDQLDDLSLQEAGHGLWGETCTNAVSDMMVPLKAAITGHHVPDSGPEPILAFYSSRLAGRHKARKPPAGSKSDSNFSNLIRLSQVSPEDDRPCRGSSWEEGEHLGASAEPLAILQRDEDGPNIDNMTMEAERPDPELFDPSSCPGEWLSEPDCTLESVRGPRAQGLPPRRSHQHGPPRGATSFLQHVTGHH
1-phosphatidylinositol 3-phosphate 5-kinase (Homo sapiens), sequence (Q9Y2I7 whole entry): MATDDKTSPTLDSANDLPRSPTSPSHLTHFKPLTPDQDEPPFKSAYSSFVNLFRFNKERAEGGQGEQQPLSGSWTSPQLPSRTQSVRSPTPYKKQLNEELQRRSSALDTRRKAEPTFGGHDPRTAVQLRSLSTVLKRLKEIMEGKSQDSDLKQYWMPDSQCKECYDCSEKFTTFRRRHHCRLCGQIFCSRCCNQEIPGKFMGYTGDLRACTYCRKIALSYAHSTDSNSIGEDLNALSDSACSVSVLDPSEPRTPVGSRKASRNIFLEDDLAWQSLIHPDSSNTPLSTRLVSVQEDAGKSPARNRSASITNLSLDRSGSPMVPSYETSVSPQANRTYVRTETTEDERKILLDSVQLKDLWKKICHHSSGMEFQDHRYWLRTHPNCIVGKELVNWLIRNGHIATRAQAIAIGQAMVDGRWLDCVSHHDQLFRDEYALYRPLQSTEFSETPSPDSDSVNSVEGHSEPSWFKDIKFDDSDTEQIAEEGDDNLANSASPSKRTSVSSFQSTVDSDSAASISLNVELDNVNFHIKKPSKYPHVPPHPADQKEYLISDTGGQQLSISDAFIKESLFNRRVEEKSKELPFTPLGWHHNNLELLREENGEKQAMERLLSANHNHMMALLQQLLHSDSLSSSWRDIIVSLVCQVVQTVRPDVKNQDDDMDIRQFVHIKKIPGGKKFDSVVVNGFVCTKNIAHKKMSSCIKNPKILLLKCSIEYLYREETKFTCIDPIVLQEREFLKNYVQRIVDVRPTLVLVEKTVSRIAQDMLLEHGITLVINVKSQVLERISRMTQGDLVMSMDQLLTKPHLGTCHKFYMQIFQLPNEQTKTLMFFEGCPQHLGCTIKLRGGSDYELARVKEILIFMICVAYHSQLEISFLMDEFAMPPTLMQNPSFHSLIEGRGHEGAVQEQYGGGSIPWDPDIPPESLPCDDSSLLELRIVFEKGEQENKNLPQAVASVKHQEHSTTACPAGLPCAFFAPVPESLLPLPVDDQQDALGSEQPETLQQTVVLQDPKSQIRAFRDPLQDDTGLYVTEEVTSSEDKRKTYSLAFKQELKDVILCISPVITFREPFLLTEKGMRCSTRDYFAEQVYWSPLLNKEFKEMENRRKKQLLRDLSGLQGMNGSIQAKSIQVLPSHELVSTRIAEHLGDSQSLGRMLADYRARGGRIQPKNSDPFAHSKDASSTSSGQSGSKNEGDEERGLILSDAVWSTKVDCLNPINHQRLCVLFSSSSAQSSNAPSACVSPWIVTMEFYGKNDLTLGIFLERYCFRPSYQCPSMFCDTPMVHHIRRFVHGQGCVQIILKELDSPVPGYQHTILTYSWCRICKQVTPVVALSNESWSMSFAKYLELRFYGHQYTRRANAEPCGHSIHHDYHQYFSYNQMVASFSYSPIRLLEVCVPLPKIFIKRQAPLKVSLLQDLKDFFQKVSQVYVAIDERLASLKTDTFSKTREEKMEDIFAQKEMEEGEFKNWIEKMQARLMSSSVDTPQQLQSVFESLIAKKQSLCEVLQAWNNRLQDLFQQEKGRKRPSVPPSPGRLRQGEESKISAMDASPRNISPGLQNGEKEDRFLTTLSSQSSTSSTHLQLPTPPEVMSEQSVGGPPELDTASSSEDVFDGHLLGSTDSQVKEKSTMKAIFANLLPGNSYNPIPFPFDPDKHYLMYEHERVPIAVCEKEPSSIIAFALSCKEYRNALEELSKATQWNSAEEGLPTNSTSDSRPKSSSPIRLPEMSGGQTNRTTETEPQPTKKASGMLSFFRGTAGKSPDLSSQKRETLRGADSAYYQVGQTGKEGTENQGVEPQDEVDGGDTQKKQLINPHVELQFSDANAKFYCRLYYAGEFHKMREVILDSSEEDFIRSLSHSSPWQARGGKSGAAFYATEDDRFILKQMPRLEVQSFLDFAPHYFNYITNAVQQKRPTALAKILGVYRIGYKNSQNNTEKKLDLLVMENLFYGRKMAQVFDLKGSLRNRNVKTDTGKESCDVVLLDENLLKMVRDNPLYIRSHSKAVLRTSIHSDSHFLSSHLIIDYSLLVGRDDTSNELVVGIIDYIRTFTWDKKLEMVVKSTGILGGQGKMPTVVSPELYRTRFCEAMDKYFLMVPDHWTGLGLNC

Row | SMILES | residual activity [1] | residual activity [2] | residual activity [3] | residual activity [4] | residual activity [5] | residual activity [6] | residual activity [7] | residual activity [8] | residual activity [9] | residual activity [10] | residual activity [11] | residual activity [12] | residual activity [13] | residual activity [14] | residual activity [15] | residual activity [16] | residual activity [17] | residual activity [18] | residual activity [19] | residual activity [20] | further results
1 | CO[C@@H](C)c1c(Nc2ccc([C@H](N(C)C(=O)C3CCS(=O)(=O)CC3)C(F)(F)F)cc2)cnc2cc(Cl)nn12 [NVS-MALT1] | 54% | 100% | 72% | 100% | 88% | 91% | 23% | 100% | 100% | 100% | 100% | 86% | 100% | 100% | 100% | 100% | 100% | 83% | 99% | 100% | residual activity [21]: 98%; residual activity [22]: 88%; inhibition [23]: 0%; residual activity [24]: 75%; residual activity [25]: 85%; residual activity [26]: 80%; inhibition [27]: -9.88%; inhibition [28]: 0%; inhibition [29]: 49.1%; inhibition [30]: 12.5%; residual activity [31]: 91%; residual activity [32]: 100%; residual activity [33]: 78%
2 | CO[C@@H](C)c1c(Nc2ccc([C@@H](N(C)C(=O)C3CCS(=O)(=O)CC3)C(F)(F)F)cc2)cnc2cc(Cl)nn12 [NVS-MALT1-C] | 65% | 89% | 100% | 88% | 100% | 87% | 57% | 100% | 100% | 100% | 100% | 82% | 100% | 94% | 100% | 100% | 89% | 87% | 82% | 100% | residual activity [21]: 92%; Ki [34]: 1.59 µM; residual activity [22]: 100%; residual activity [24]: 91%; residual activity [25]: 91%; residual activity [26]: 91%; inhibition [27]: 5.46%; inhibition [29]: 57.1%; inhibition [30]: 11.4%; residual activity [31]: 91%; residual activity [32]: 100%; residual activity [33]: 100%
